Source: PubChem BioAssay (NCI)
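Results reflect a 48-hour exposure of cells in 96-well plates to compound at five concentrations. TGI: concentration producing complete growth inhibition.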

Legend:
Assay in all cases: NCI tumour cell line growth inhibition, 48 h
ACHN renal = test system: ACHN renal
CAKI-1 renal = test system: CAKI-1 renal
CCRF-CEM leukemia = test system: CCRF-CEM leukemia
DU-145 prostate = test system: DU-145 prostate
EKVX NSCLC = test system: EKVX NSCLC
HCC-2998 colon = test system: HCC-2998 colon
HT29 colon = test system: HT29 colon
KM12 colon = test system: KM12 colon
OVCAR-4 ovarian = test system: OVCAR-4 ovarian
SR leukemia = test system: SR leukemia
T-47D breast = test system: T-47D breast
UO-31 renal = test system: UO-31 renal

In the case of CC1=CC=CC(C)(C)CC1(O[Si](C)(C)C)C(F)(F)F (configuration not stated), the TGI (ACHN renal) is reported as > 100 µM, the TGI (CAKI-1 renal) is reported as > 100 µM and the TGI (CCRF-CEM leukemia) is reported as > 100 µM. For the same molecule, the TGI (DU-145 prostate) was > 100 µM, the TGI (EKVX NSCLC) was > 100 µM and the TGI (HCC-2998 colon) was > 100 µM. The TGI (HT29 colon) was > 100 µM, the TGI (KM12 colon) was > 100 µM and the TGI (OVCAR-4 ovarian) was > 100 µM. The TGI (SR leukemia) was > 100 µM, the TGI (T-47D breast) was > 100 µM and the TGI (UO-31 renal) was > 100 µM.

Molecule O=[N+]([O-])C(=C(Sc1ccccc1)Sc1ccccc1)C(Cl)=C(Cl)Cl has a TGI (ACHN renal) of 0.895 µM, a TGI (CAKI-1 renal) of 1.61 µM and a TGI (CCRF-CEM leukemia) of 0.0419 µM. It also gave a TGI (DU-145 prostate) of 3.43 µM, a TGI (EKVX NSCLC) of 5.15 µM and a TGI (HCC-2998 colon) of 4.4 µM. For the same molecule, the TGI (HT29 colon) was 0.487 µM, the TGI (KM12 colon) was 7.03 µM and the TGI (OVCAR-4 ovarian) was 1.46 µM. The TGI (SR leukemia) was 0.564 µM, the TGI (T-47D breast) was 1.14 µM and the TGI (UO-31 renal) was 0.402 µM.

For CC(=O)OCC1OC(n2c(=S)[nH]c(-c3ccccc3)c(C#N)c2=O)C(OC(C)=O)C(OC(C)=O)C1OC(C)=O (configuration not stated), the TGI (ACHN renal) was > 100 µM, the TGI (CAKI-1 renal) was > 100 µM and the TGI (CCRF-CEM leukemia) was > 100 µM. For the same molecule, the TGI (DU-145 prostate) was > 100 µM, the TGI (EKVX NSCLC) was > 100 µM and the TGI (HCC-2998 colon) was > 100 µM. The TGI (HT29 colon) was > 100 µM, the TGI (KM12 colon) was > 100 µM and the TGI (OVCAR-4 ovarian) was > 100 µM. The TGI (SR leukemia) was > 100 µM, the TGI (T-47D breast) was > 100 µM and the TGI (UO-31 renal) was > 100 µM.

Cc1nc2ccc([N+](=O)[O-])cc2c(=O)n1C(=S)Nc1cccc(Cl)c1 showed a TGI (ACHN renal) of 48.2 µM, a TGI (CAKI-1 renal) of 56 µM and a TGI (CCRF-CEM leukemia) of 62.3 µM. The TGI (DU-145 prostate) was > 100 µM, the TGI (EKVX NSCLC) was > 100 µM and the TGI (HCC-2998 colon) was 26 µM. For the same molecule, the TGI (HT29 colon) was 39.6 µM, the TGI (KM12 colon) was 32.2 µM and the TGI (OVCAR-4 ovarian) was > 100 µM. The TGI (SR leukemia) was > 100 µM, the TGI (T-47D breast) was 69.6 µM and the TGI (UO-31 renal) was 21.5 µM.

With CC1=C2c3ccccc3N(C(=O)/C=C/C(=O)O)[C@H]2[C@H]2C(=O)OC(=O)[C@H]2C1 the TGI (ACHN renal) was > 10 µM, the TGI (CAKI-1 renal) was > 10 µM and the TGI (CCRF-CEM leukemia) was > 10 µM. The TGI (DU-145 prostate) was > 10 µM, the TGI (EKVX NSCLC) was > 10 µM and the TGI (HCC-2998 colon) was > 10 µM. For the same molecule, the TGI (HT29 colon) was > 10 µM, the TGI (KM12 colon) was > 10 µM and the TGI (OVCAR-4 ovarian) was > 10 µM. For the same molecule, the TGI (SR leukemia) was > 10 µM, the TGI (T-47D breast) was > 10 µM and the TGI (UO-31 renal) was > 10 µM.

For N#CC(C#N)=C1CCCS(=O)(=O)c2ccccc21, the TGI (ACHN renal) was > 100 µM, the TGI (CAKI-1 renal) was > 100 µM and the TGI (CCRF-CEM leukemia) was > 100 µM. The TGI (DU-145 prostate) was > 100 µM, the TGI (EKVX NSCLC) was > 100 µM and the TGI (HCC-2998 colon) was > 100 µM. For the same molecule, the TGI (HT29 colon) was > 100 µM, the TGI (KM12 colon) was > 100 µM and the TGI (OVCAR-4 ovarian) was > 100 µM. For the same molecule, the TGI (SR leukemia) was > 100 µM, the TGI (T-47D breast) was > 100 µM and the TGI (UO-31 renal) was > 100 µM.

CCN(CC)CCCn1c(=O)c2cccnc2n2c3c(=O)n(C)c(=O)n(C)c3nc12 was tested, and the TGI (ACHN renal) was > 100 µM, the TGI (CAKI-1 renal) was > 100 µM and the TGI (CCRF-CEM leukemia) was > 100 µM. The TGI (DU-145 prostate) was > 100 µM, the TGI (EKVX NSCLC) was > 100 µM and the TGI (HCC-2998 colon) was > 100 µM. The TGI (HT29 colon) was > 100 µM, the TGI (KM12 colon) was > 100 µM and the TGI (OVCAR-4 ovarian) was > 100 µM. For the same molecule, the TGI (SR leukemia) was > 100 µM, the TGI (T-47D breast) was > 100 µM and the TGI (UO-31 renal) was > 100 µM.

In the case of COC(=O)CCCC(=O)C(=Nc1c(Cl)cccc1Cl)NNc1ccc(Cl)cc1, the TGI (ACHN renal) is reported as > 100 µM, the TGI (CAKI-1 renal) is reported as > 100 µM and the TGI (CCRF-CEM leukemia) is reported as 75.3 µM. The TGI (DU-145 prostate) was > 100 µM, the TGI (EKVX NSCLC) was > 100 µM and the TGI (HCC-2998 colon) was > 100 µM. The TGI (HT29 colon) was > 100 µM, the TGI (KM12 colon) was > 100 µM and the TGI (OVCAR-4 ovarian) was > 100 µM. The TGI (SR leukemia) was > 100 µM, the TGI (T-47D breast) was > 100 µM and the TGI (UO-31 renal) was > 100 µM.

For C/C(=N/NC(=S)Nc1cccc(C)c1)c1ccccn1, the TGI (ACHN renal) was 6.83 µM, the TGI (CAKI-1 renal) was 9.07 µM and the TGI (DU-145 prostate) was 8.29 µM. The TGI (EKVX NSCLC) was 2.3 µM, the TGI (HCC-2998 colon) was 4.18 µM and the TGI (HT29 colon) was 2.39 µM. It also gave a TGI (KM12 colon) of 4.12 µM, a TGI (OVCAR-4 ovarian) of 8.93 µM and a TGI (SR leukemia) of 2.92 µM. The TGI (T-47D breast) was 12.4 µM and the TGI (UO-31 renal) was 6 µM.

CN(C)c1ccc(/C(Br)=C2\OC(=O)c3ccccc32)cc1 was tested, and the TGI (ACHN renal) was > 100 µM, the TGI (CAKI-1 renal) was > 100 µM and the TGI (CCRF-CEM leukemia) was > 100 µM. The TGI (DU-145 prostate) was > 100 µM, the TGI (EKVX NSCLC) was > 100 µM and the TGI (HCC-2998 colon) was > 100 µM. The TGI (HT29 colon) was > 100 µM, the TGI (KM12 colon) was > 100 µM and the TGI (OVCAR-4 ovarian) was > 100 µM. The TGI (SR leukemia) was > 100 µM, the TGI (T-47D breast) was > 100 µM and the TGI (UO-31 renal) was > 100 µM.

For O=C(O)c1ccc(NS(=O)(=O)Cc2ccccc2)cc1, the TGI (ACHN renal) was > 100 µM, the TGI (CAKI-1 renal) was > 100 µM and the TGI (CCRF-CEM leukemia) was > 100 µM. For the same molecule, the TGI (DU-145 prostate) was > 100 µM, the TGI (EKVX NSCLC) was > 100 µM and the TGI (HCC-2998 colon) was > 100 µM. For the same molecule, the TGI (HT29 colon) was > 100 µM, the TGI (KM12 colon) was > 100 µM and the TGI (OVCAR-4 ovarian) was > 100 µM. For the same molecule, the TGI (SR leukemia) was > 100 µM, the TGI (T-47D breast) was > 100 µM and the TGI (UO-31 renal) was > 100 µM.

In the case of COc1ccc2c(c1)C(=O)c1ccccc1C2, the TGI (ACHN renal) is reported as > 100 µM, the TGI (CAKI-1 renal) is reported as > 100 µM and the TGI (CCRF-CEM leukemia) is reported as > 100 µM. For the same molecule, the TGI (DU-145 prostate) was 35 µM, the TGI (EKVX NSCLC) was > 100 µM and the TGI (HCC-2998 colon) was > 100 µM. The TGI (HT29 colon) was > 100 µM, the TGI (KM12 colon) was > 100 µM and the TGI (OVCAR-4 ovarian) was > 100 µM. For the same molecule, the TGI (SR leukemia) was > 100 µM, the TGI (T-47D breast) was 67.8 µM and the TGI (UO-31 renal) was > 100 µM.

c1ccc2c(c1)CCCN1CCc3ccccc3C21 (configuration not stated) was tested, and the TGI (ACHN renal) was > 100 µM, the TGI (CAKI-1 renal) was > 100 µM and the TGI (CCRF-CEM leukemia) was > 100 µM. For the same molecule, the TGI (DU-145 prostate) was > 100 µM, the TGI (EKVX NSCLC) was > 100 µM and the TGI (HCC-2998 colon) was > 100 µM. For the same molecule, the TGI (HT29 colon) was > 100 µM, the TGI (KM12 colon) was > 100 µM and the TGI (OVCAR-4 ovarian) was > 100 µM. For the same molecule, the TGI (SR leukemia) was > 100 µM, the TGI (T-47D breast) was > 100 µM and the TGI (UO-31 renal) was > 100 µM.

In the case of N#Cc1c2c(c(Nc3ccc(F)cc3)n3c1nc1ccccc13)CCC2, the TGI (ACHN renal) is reported as 5.8 µM, the TGI (CAKI-1 renal) is reported as 3.5 µM and the TGI (CCRF-CEM leukemia) is reported as 4.52 µM. The TGI (DU-145 prostate) was 13.9 µM, the TGI (EKVX NSCLC) was 26 µM and the TGI (HCC-2998 colon) was 41.9 µM. It also gave a TGI (HT29 colon) of 3.61 µM, a TGI (KM12 colon) of 23.7 µM and a TGI (OVCAR-4 ovarian) of 28.4 µM. The TGI (SR leukemia) was > 100 µM, the TGI (T-47D breast) was 24 µM and the TGI (UO-31 renal) was 7.75 µM.
